Test results published in patent US6525062B2, “Method of treating pain using nalbuphine and opioid antagonists” (The Regents of the University of California, priority 2000, dated 2003).
“Also recorded” adds a separate entry of the source.

Legend:
[1] = tested on: postoperative pain after removal of impacted third molars; conditions: co-administration of 0.4 mg naloxone, human patients, cited from earlier work
[2] = tested on: postoperative pain after removal of third molar teeth
From the text: This is a subjective measurement of pain, in which persons participating in the study are requested to indicate a level of pain at a certain time on a 10-cm line. The patient makes an indication on the line at a value from 0 to 10 indicating the level of pain felt at that time (where 0 indicates no pain and 10 indicates the worst pain imaginable to the patient). […] Tabulations were then made indicating increase or decrease in the pain level with time, with a negative value indicating a decrease in pain experienced by the patient and a positive value, an increase in such pain.
In this clinical trial, 88 patients underwent standardized surgery by the same oral surgeon for removal of third molar (“wisdom”) teeth, including at least one bony impacted mandibular third molar. Prior to surgery, patients received intravenous diazepam, nitrous oxide, and a local anesthetic (mepivacaine without vasoconstrictor to obtain a nerve block of short duration). […]
Baseline pain intensity was defined as the last VAS pain rating before administration of the test drug or drugs. VAS pain ratings were recorded at 20-minute intervals beginning ten minutes after administration of the test drug. The duration of the experiment, measured from the time of administration of the test drug, was three hours. […]

[3] = tested on: postoperative pain after removal of third molar teeth; conditions: nalbuphine alone, data as reported in previous study; cited from earlier work
[4] = tested on: postoperative pain after removal of impacted wisdom teeth; conditions: cited from earlier work

CC(C)=CCN1CCC2(C)c3cc(O)ccc3CC1C2C (centres unmarked) [pentazocine]
effect of co-administered naloxone on analgesia produced by pentazocine ([1]; 60 mg pentazocine): potentiated

C=CCN1CC[C@]23c4c5ccc(O)c4O[C@H]2C(=O)CC[C@@]3(O)[C@H]1C5 [naloxone]
gender differences in response (ANOVA) ([2]; Example 1, naloxone 0.4 mg alone or nalbuphine 5 mg + naloxone 0.4 mg, intravenous): lack of gender differences in response

Oc1ccc2c3c1O[C@H]1[C@@H](O)CC[C@@]4(O)[C@@H](C2)N(CC2CCC2)CC[C@]314 [nalbuphine]
gender x treatment interaction (ANOVA) [3]: significant gender x treatment interaction
pain relief (VAS), initial period ([2]; women, nalbuphine 2.5 mg alone vs naloxone 0.4 mg vs combination, nalbuphine-alone data from previous study): slightly better pain relief in women than either naloxone at 0.4 mg or the combination
effect on postoperative pain ([4]; nalbuphine 5 mg alone, men): unexpectedly increased postoperative pain; also recorded: produced a marked increase in pain in men; also recorded: pain-enhancing effect; also recorded: had produced an increase in pain
pain modulation effect versus placebo ([4]; nalbuphine 5 mg alone, women): did not produce pain modulation effects in women that were any better than those achieved by administration of a dose of placebo
sex difference of analgesic effects ([4]; women versus men): greater and more consistent in women than in men

CN1CC[C@]23c4c5ccc(O)c4O[C@H]2[C@@H](O)C=C[C@H]3[C@H]1C5 [morphine]
effect of co-administered naloxone on analgesia produced by morphine ([1]; 8 mg morphine): attenuated
